Reference: paper PMC12118597 (Science Advances, 2025)
“And” between values parts separate entries of the source, which are not always exact repeats. Equal values may be shown once. Read-outs that look alike come from different tables or passages of the source.

How the values were obtained:
[1] = target: T1, SARS-CoV-2 NSP3 macrodomain (Mac1) (Severe acute respiratory syndrome coronavirus 2, UniProt P0DTD1); experiment: biochemical; format: binding
[2] = target: T1, SARS-CoV-2 NSP3 macrodomain (Mac1); format: binding; settings: for Number of isomers bound: ligand modeling, Mac1 crystal soak
[3] = SARS CoV-2 macrodomain HTRF assay
[4] = read-out: IC50 (confirmatory HTRF dose-response screen)
[5] = crystal soak 10 mM, DMSO background map
[6] = Single dose, concentration 200 μM
[7] = compound at 200 μM, mean of three to four technical replicates, read-out: % competition at 200 μM (preliminary HTRF screen)
[8] = crystal soak 10 mM, TFA/DMSO background map
[9] = SARS CoV-2 macrodomain HTRF assay, dose-response, read-out: IC50
[10] = stereoisomer(s) modeled as bound, residues 201/202/203
[11] = SARS CoV-2 macrodomain HTRF assay, single dose concentration 200 μM, read-out: Average % competition
[12] = SARS CoV-2 macrodomain HTRF assay, single dose concentration 200 μM
[13] = stereoisomer(s)/conformations of the soaked ligand modeled in the Mac1 crystal structure
[14] = crystal soak 10 mM, P43 crystal form

SMILES | Average % competition [1, 6] | inhibition at 200 µM [1, 7] | PanDDA run, TFA/DMSO background map: 1-BDC [2, 8] | PanDDA run, TFA/DMSO background map: Hit [2, 8] | Number of isomers bound [2] | also measured
Cc1c[nH]c2ncnc(NCC(C)(C)O)c12 [AVI-3758, 2-methyl-1-((5-methyl-7H-pyrrolo[2,3-d]pyrimidin-4-yl)amino)propan-2-ol] |  |  |  |  |  | Hill slope ([1]; HTRF binding curve, SARS-CoV-2 Mac1): 1.0; Ki [1, 3]: 26 µM; Ligand efficiency (binding enery per heavy atom) [1, 3]: 0.40; Hill slope ([1]; SARS CoV-2 macrodomain HTRF assay, dose-response): 1.0; IC50 [1, 4]: 28 µM; 1-BDC ([2]; PanDDA background density correction, 1-BDC): 0.14; X-ray crystal structure ([2]; TRUE = crystal structure with ligand obtained): TRUE; Hit (PanDDA run, DMSO background map) [2, 5]: TRUE; 1-BDC (PanDDA run, DMSO background map) ([2]; crystal soak 10 mM, DMSO background map, event 1): 0.19 and 0.14; Hit (PanDDA run, overall) ([2]; crystal soak, 10 mM soak concentration, P43 crystal form): TRUE; Refined ligand occupancy (%) ([2]; crystallographic refinement): 50%; 2*(1-BDC) (%) ([2]; occupancy estimate from PanDDA): 28%; Binding site ([2]; site of ligand in X-ray crystal structure): Adenosine
OCC(CC1CC1)Nc1ncnc2[nH]ccc12 (stereo not shown) [AVI-3662] | 44% | 44% | 0.09 | TRUE | 1 | 
OCC1CC2(CCCC2)CN1c1ncnc2[nH]ccc12 (stereo not shown) [AVI-3708] |  |  |  |  | 1 | Ki [1, 3]: 25 µM; Ligand efficiency (binding enery per heavy atom) [1, 3]: 0.32; IC50 [1, 9]: 27 µM
CN(C)CC(CO)Nc1ncnc2[nH]ccc12 (stereo not shown) [AVI-3671] | <10% | < 10% | 0.13 | TRUE | 1 | 
Cn1cc(CC(CO)Nc2ncnc3[nH]ccc23)cn1 (stereo not shown) [AVI-3657] | 24% | 24% | 0.09 | TRUE | 1 | 
CC(c1ccccc1)C(CO)Nc1ncnc2[nH]ccc12 (stereo not shown) [AVI-3669] |  |  | 0.09 | TRUE | 1 | Ligand efficiency ([1]; Binding energy per heavy atom): 0.33; fold more potent / increased binding affinity than AVI-313 parent ([1]; HTRF IC50 compared with AVI-313): > 10 fold; Ki [1, 3]: 8.1 µM; Ligand efficiency (binding enery per heavy atom) [1, 3]: 0.33; IC50 [1, 4]: 8.7 µM
OCC(Nc1ncnc2[nH]ccc12)c1ccccc1 (stereo not shown) [AVI-3715] | 54% | 54% | 0.09 | TRUE | 1 | 
OCCC(CO)Nc1ncnc2[nH]ccc12 (stereo not shown) [AVI-3734] |  |  |  |  | 1 | Ki [1, 3]: 48 µM; Ligand efficiency (binding enery per heavy atom) [1, 3]: 0.37; IC50 [1, 4]: 52 µM
OCC(CC1OCCO1)Nc1ncnc2[nH]ccc12 (stereo not shown) [AVI-3658] | 11% | 11% |  |  | 1 | 
OCC(Cc1ccccc1)Nc1ncnc2[nH]ccc12 (stereo not shown) [AVI-313] |  |  |  |  | 2 | Ligand efficiency (binding enery per heavy atom) [1]: 0.27; Ki ([1]; dose-response): 120 µM; IC50 [1, 4]: 130 µM; Isomers modeled [2, 10]: S,R
O=C(O)C(F)(F)F.OC[C@H](Cc1ccc(O)cc1)Nc1ncnc2[nH]ccc12 [AVI-4066] |  |  |  |  |  | Ki [1, 3]: 670 µM; Ligand efficiency (binding enery per heavy atom) [1, 3]: 0.21; IC50 [1, 9]: 720 µM; Hit (PanDDA run, TFA/DMSO background map) [2, 8]: TRUE; 1-BDC (PanDDA run, TFA/DMSO background map) ([2]; crystal soak 10 mM, TFA/DMSO background map, event 1): 0.19 and 0.29 and 0.3
O=C(O)C(F)(F)F.O[C@H]1CCC[C@@H]1Nc1ncnc2[nH]ccc12 [AVI-3639] | 74% | 74% | 0.09 | TRUE | 1 | 
OCC(Cc1ccccn1)Nc1ncnc2[nH]ccc12 (stereo not shown) [AVI-3696] | 34% | 34% |  |  | 2 | Isomers modeled [2, 10]: R,S
OCC(CC1CCOC1)Nc1ncnc2[nH]ccc12 (stereo not shown) [AVI-3665] | 11% | 11% | 0.15 | TRUE | 1 | 
OCC1CC2(CCOCC2)CN1c1ncnc2[nH]ccc12 (stereo not shown) [AVI-3707] |  | 39% | 0.15 | TRUE | 1 | inhibition at 200 µM [1, 11]: 39%
O=C(O)C1CCCN1S(=O)(=O)c1cccc2nsnc12 (stereo not shown) [AVI-2] |  | 23% |  |  | 1 | 
O[C@@H]1CN(c2ncnc3[nH]ccc23)C[C@H]1F [AVI-616] |  | 15% |  |  | 1 | Average % competition [1, 12]: 15%
OCC(CC(O)c1ccccc1)Nc1ncnc2[nH]ccc12 (stereo not shown) [AVI-3642] | <10% | < 10% | 0.17 | TRUE | 1 | 
OCC(CC1CCCCC1)Nc1ncnc2[nH]ccc12 (stereo not shown) [AVI-3690] | 66% | 66% |  |  | 1 | 

SMILES | Average % competition [1, 6] | inhibition at 200 µM [1, 7] | PanDDA run, TFA/DMSO background map: 1-BDC [2, 8] | PanDDA run, TFA/DMSO background map: Hit [2, 8] | Number of isomers bound [2] | also measured
OCC(Cc1cccs1)Nc1ncnc2[nH]ccc12 (stereo not shown) [AVI-3711] | 63% | 63% | 0.16 | TRUE | 1 | 
CC1CCN(c2ncnc3[nH]ccc23)C1CO (stereo not shown) [AVI-3655] |  | 75% | 0.18 | TRUE | 1 | inhibition at 200 µM [1, 11]: 75%
CCC(C)(CO)Nc1ncnc2[nH]ccc12 (stereo not shown) [AVI-3697] |  |  |  |  | 1 | Ki [1, 3]: 34 µM; Ligand efficiency (binding enery per heavy atom) [1, 3]: 0.39; IC50 [1, 9]: 36 µM
CC(O)C(C)Nc1ncnc2[nH]ccc12 (stereo not shown) [AVI-5158] | 32% | 32% |  |  |  | Isomers modeled [2, 13]: RS,RR
C[C@@H]1CCN(c2ncnc3[nH]ccc23)[C@H](CO)C1 [AVI-4064] |  |  |  |  |  | Ki [1, 3]: 93 µM; Ligand efficiency (binding enery per heavy atom) [1, 3]: 0.31; IC50 [1, 9]: 100 µM; Isomers modeled [2, 13]: RS,SR
OCC(CC(F)(F)F)Nc1ncnc2[nH]ccc12 (stereo not shown) [AVI-3637] | 50% | 50% | 0.21 | TRUE | 1 | 
C[C@@H](O)[C@H](CO)Nc1ncnc2[nH]ccc12.O=C(O)C(F)(F)F [AVI-3730] | 63% | 63% | 0.12 | TRUE | 1 | 
CC1(C)CCN(c2ncnc3[nH]ccc23)C(CO)C1 (stereo not shown) [AVI-5994] |  |  |  |  |  | Ki [1, 3]: 63 µM; Ligand efficiency (binding enery per heavy atom) [1, 3]: 0.31; IC50 [1, 9]: 68 µM; Isomers modeled [2, 13]: S,S
OC1CCCN(c2ncnc3[nH]ccc23)C1 (stereo not shown) [AVI-3646] |  | 20% | 0.13 | TRUE | 1 | Average % competition [1, 12]: 20%
CC1(C)CCC(CO)N(c2ncnc3[nH]ccc23)C1 (stereo not shown) [AVI-3726] |  | 76% |  |  | 2 | inhibition at 200 µM [1, 11]: 76%; Isomers modeled [2, 10]: R,R,S
OC[C@H]1CN2CCC[C@H]2CN1c1ncnc2[nH]ccc12 [AVI-3724] |  | < 10% |  |  |  | inhibition at 200 µM [1, 11]: < 10%; PanDDA run, overall: Hit [2, 14]: TRUE; PanDDA run, overall: Modeling comment [2, 14]: Weak density, not modeled; PanDDA run, DMSO background map: 1-BDC [2, 5]: 0.05; PanDDA run, DMSO background map: Hit [2, 5]: TRUE
OC(c1ccccc1)C1CCCN1c1ncnc2[nH]ccc12 (stereo not shown) [AVI-3652] |  | 35% | 0.16 | TRUE | 1 | inhibition at 200 µM [1, 11]: 35%
OC1CCN(c2ncnc3[nH]ccc23)C1 (stereo not shown) [AVI-3661] |  | 11% | 0.12 | TRUE |  | inhibition at 200 µM [1, 11]: 11%
O=C(O)C(F)(F)F.OC[C@H]1CC2(CN1c1ncnc3[nH]ccc13)OCCO2 [AVI-3702] |  | 17% | 0.13 | TRUE | 1 | inhibition at 200 µM [1, 11]: 17%
CC(C)(C)CC(CO)Nc1ncnc2[nH]ccc12 (stereo not shown) [AVI-3648] | 27% | 27% | 0.16 | TRUE | 1 | 
CCC(O)[C@H]1CCCN1c1ncnc2[nH]ccc12 (stereo partly shown) [AVI-3666] |  |  |  |  | 1 | Ligand efficiency (binding enery per heavy atom) [1, 3]: 0.34
OCC(CC1CCC1)Nc1ncnc2[nH]ccc12 (stereo not shown) [AVI-3641] | 32% | 32% | 0.11 | TRUE | 1 | 
OCC(CC1CCCC1)Nc1ncnc2[nH]ccc12 (stereo not shown) [AVI-3691] | 52% | 53% | 0.1 | TRUE | 1 | 
